Values of other authors, collected in US20140371322A1, “Phenoxybenzamine Transdermal Composition” (PROFESSIONAL COMPOUNDING CENTERS OF AMERICA, priority 2013, published 2014).

Key:
[1] = weak base

Question: With `CC(COc1ccccc1)N(CCCl)Cc1ccccc1` (centres unmarked) [phenoxybenzamine] as the compound, how does the “pka (dissociation constant)” value [1] read?
Answer: 6.58

Question: What about the “octanol/water log P partition coefficient” value of the same compound?
Answer: 4.6
